Experimental findings from ChEMBL document CHEMBL1157937, “Discovery of novel leukotriene A4 hydrolase inhibitors based on piperidine and piperazine scaffolds” (Bioorg Med Chem Lett, 2010) are described below.

In test [1] the target is T1, Leukotriene A-4 hydrolase (Homo sapiens, UniProt P09960).
T1 sequence (P09960 whole entry): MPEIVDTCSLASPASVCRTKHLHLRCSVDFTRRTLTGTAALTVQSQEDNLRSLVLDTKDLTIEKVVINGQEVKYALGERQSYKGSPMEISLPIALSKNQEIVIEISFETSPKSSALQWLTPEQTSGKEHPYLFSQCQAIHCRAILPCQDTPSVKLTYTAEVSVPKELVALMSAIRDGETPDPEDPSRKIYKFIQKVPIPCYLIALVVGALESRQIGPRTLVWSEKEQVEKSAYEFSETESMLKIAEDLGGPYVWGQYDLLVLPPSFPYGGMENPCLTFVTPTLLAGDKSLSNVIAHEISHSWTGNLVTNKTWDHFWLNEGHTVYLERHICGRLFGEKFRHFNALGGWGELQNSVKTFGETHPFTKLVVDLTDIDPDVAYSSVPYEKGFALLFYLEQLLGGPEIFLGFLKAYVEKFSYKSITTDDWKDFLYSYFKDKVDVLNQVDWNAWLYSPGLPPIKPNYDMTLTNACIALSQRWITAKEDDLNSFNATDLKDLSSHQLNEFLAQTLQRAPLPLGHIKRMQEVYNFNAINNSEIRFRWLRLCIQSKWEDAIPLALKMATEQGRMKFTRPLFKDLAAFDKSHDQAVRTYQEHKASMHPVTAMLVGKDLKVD
Description: Inhibition of human recombinant LTA4H hydrolysis assessed as inhibition of LTB4 formation by LC-MS/MS

Test [2] concerns the target T1, Leukotriene A-4 hydrolase. This is another data set of the same source.
Description: Inhibition of human LTA4H hydrolysis assessed as inhibition of Ca2+ ionophore-stimulated LTB4 formation in human whole blood by ELISA

Consider `c1ccc(Cc2ccc(OCC3CCCCN3)cc2)cc1` (racemic), for which the values for the IC50 in test [1] and in test [2] were 134 nM and 105 nM, respectively.
In test [1], `Clc1ccc(Cc2ccc(OC[C@H]3CCCCN3)cc2)cc1` came in with a concentration for half-maximal inhibition (IC50) of 315 nM.
As for `Fc1ccc(Oc2ccc(OC[C@@H]3CCCCN3)cc2)cc1`, the IC50 in test [1] was found to be 174 nM; in test [2], 90 nM.
The like results for `Clc1ccc(Oc2ccc(OC[C@@H]3CCCCN3)cc2)cc1` were, in that order, 110 nM and 40 nM.
As to `c1ccc(Oc2ccc(OC[C@H]3CCCCN3)cc2)cc1`, the concentration for half-maximal inhibition (IC50) in test [1] came out at 48 nM; in test [2], 126 nM.
The like results for `c1ccc(-c2ccc(Oc3ccc(OC[C@H]4CCCCN4)cc3)cc2)cc1` were, in that order, 96 nM and 29 nM.
The like results for `FC(F)(F)c1ccc(Oc2ccc(OC[C@H]3CCCCN3)cc2)cc1` were, in that order, 93 nM and 173 nM.
With `c1ccc(Cc2ccc(OCC3CNCCN3)cc2)cc1` (configuration not stated), half-maximal inhibition in test [1] (IC50) required 342 nM.
Turning to `O=C(O)CCCN1CCCC[C@H]1COc1ccc(Oc2ccc(Cl)cc2)cc1`, the IC50 was 106 nM in test [1] and 23 nM in test [2].
Take `O=C(O)CN1CCCC[C@H]1COc1ccc(Oc2ccc(Cl)cc2)cc1`: the IC50 in test [1] turned out to be 880 nM.
As for `c1ccc(Oc2ccc(OCC3CCCCN3)cc2)cc1` (racemic), the concentration for half-maximal inhibition (IC50) stood at 70 nM in test [1] and 207 nM in test [2].
In test [1], `Clc1ccc(Cc2ccc(OC[C@@H]3CCCCN3)cc2)cc1` displayed an IC50 of 438 nM. That is a sub-micromolar value.
The same measure, in the same setting: the figure for `c1cc(-c2ccc(Cc3ccc(OC[C@@H]4CCCCN4)cc3)cc2)cs1` is 60 nM; for `c1ccc(Cc2ccc(OCC3CN(Cc4ccccc4)CCN3)cc2)cc1` (configuration not stated) it is 660 nM.
With `c1ccc(Cc2ccc(OC[C@H]3CCCCN3)cc2)cc1`, the concentration for half-maximal inhibition (IC50) came to 94 nM in test [1] and 60 nM in test [2].
In test [1], `Clc1ccc(Oc2ccc(OC[C@@H]3CCCCN3Cc3ncon3)cc2)cc1` returned a 50% inhibitory concentration (IC50) of 6900 nM.
For `O=C(O)CCCN1CCCC[C@@H]1COc1ccc(Oc2ccc(Cl)cc2)cc1`, the results for the IC50 in test [1] and in test [2] were 53 nM and 6 nM, respectively.
Turning to `c1ccc(-c2ccc(Oc3ccc(OC[C@@H]4CCCCN4)cc3)cc2)cc1`, the 50% inhibitory concentration (IC50) worked out at 114 nM in test [1] and 43 nM in test [2].
In the case of `O=C(O)CCN1CCCC[C@H]1COc1ccc(Oc2ccc(Cl)cc2)cc1`, in test [1], half-maximal inhibition (IC50) was put at 212 nM.
Regarding `c1ccc(Oc2ccc(OC[C@@H]3CCCCN3)cc2)cc1`, the IC50 in test [1] was 44 nM; in test [2] it was 286 nM.
